# Measured values reported in patent publication US8980933B2, “Combretastatin analogs for use in the treatment of cancer” (Universitat Bayreuth, priority 2010, dated 2015).
# Tests used:
# Type in all cases: cell-based, human
# 518A2 cells [1] = assay: ROS generation, NBT assay, 518A2; details: 50 μM, relative to untreated controls (1%), mean ± SD
# Description: (§1) The generation of reactive oxygen species (ROS) in tumor cells is a sign of cellular stress resulting in severe damage of cellular components such as DNA, lipids or proteins.
# (§2) For the NBT assay, HL-60 cells (0.5·10^6/mL) were plated in 96-well tissue culture plates, and test compounds were added after 24 h incubation at 37° C. to achieve a final concentration of 50 μM. […] After removal of the cell medium by centrifugation, the cells in each well were resuspended in 100 μL 0.1% NBT, and the plates were placed in the incubator for 1 h. The reduced NBT was solubilized with 100 μl 2 M KOH and 130 μl DMSO for 30 min. The absorbance was measured for each well at 630 and 405 nm (background) using an ELISA plate reader. The adherent 518A2 cells (0.5·10^4/mL) were seeded out in 96-well tissue culture plates after trypsinization and incubation for 24 h at 37° C. to allow attachment, then treated similarly, only that the medium was removed prior to incubation with NBT for 4 h. All experiments were carried out in quadruplicate.
# HL-60 cells [2] = assay: ROS generation, NBT assay, HL-60; details: 50 μM, relative to untreated controls (1%), mean ± SD
# Description: as §1, §2
# 518A2 cells [3] = assay: Mitochondrial membrane assay (JC-1), 518A2; details: 5 μM, red/green fluorescence ratio relative to untreated controls (100%), mean ± SD
# Description: (§3) Values represent means of four independent experiments±standard deviation.
# (§4) Changes in mitochondrial membrane potential were determined by the Mitochondrial Membrane Detection Kit (Stratagene, La Jolla, Calif., USA) according to the manufacturer's procedure. 72 h following treatment with 5 μM of the test compounds, cell samples were centrifuged at 400 g for 5 min. The pellets were resuspended in 500 μL diluted JC-1 solution, incubated at 37° C. for 15 min (HL-60) and then centrifuged again for 5 min at 400 g. After washing, the pellets were resuspended in 100 μL PBS and transferred into the wells of a black 96-well plate. The red (λex=585 nm, λem=590 nm) and green (λex=510 nm, λem=527 nm) fluorescence intensities were measured and their ratio was calculated.
# HL-60 cells [4] = assay: Mitochondrial membrane assay (JC-1), HL-60; details: 5 μM, red/green fluorescence ratio relative to untreated controls (100%), mean ± SD
# Description: as §3, §4
# [5] = system: KB-V1/Vbl cervical carcinoma cells; assay: MTT cell growth inhibition, KB-V1/Vbl; details: KB-V1/Vbl (Pgp+)
# Description: The MCF-7/Topo cells were grown in E-MEM medium (Sigma) supplemented with 2.2 g/L NaHCO3, 110 mg/L sodium pyruvate and 5% FCS. The cells were maintained in a moisture-saturated atmosphere (5% CO2) at 37° C. in 75-mL culture flasks (Nunc, Wiesbaden, Germany). They were serially passaged following trypsinisation by 0.05% trypsin/0.02% EDTA (PAA laboratories, Clbe, Germany). Mycoplasma contamination was routinely monitored, and only mycoplasma-free cultures were used.
# HL-60 leukemia cells (5×10^5/mL), and cells (5×10^4/mL) of 518A2 melanoma, HT-29 colon, KB-V1/Vbl cervix and MCF-7/Topo breast carcinoma were seeded out in 96-well tissue culture plates and cultured for 24 h. […] Blank and solvent controls were treated identically. MTT in phosphate buffered saline (5 mg/mL) was added to a final concentration of 0.05% (HL-60, 518A2) or 0.1% (HT-29, KB-V1/Vbl, MCF-7/Topo). After 2 h the formazan precipitate was dissolved in 10% sodium dodecylsulfate in DMSO containing 0.6% acetic acid in the case of the HL-60 cells. For the adherent 518A2, KB-V1/Vbl, MCF-7/Topo and HT-29 cells the microplates were swiftly turned to discard the medium before adding the solvent mixture. The microplates were gently shaken in the dark for 30 min and absorbance at 570 nm and 630 nm (background) was measured with an ELISA plate reader. All experiments were carried out in quadruplicate; the percentage of viable cells was calculated as the mean±SD with controls set to 100%.
# [6] = system: MCF-7/Topo breast carcinoma cells; assay: MTT cell growth inhibition, MCF-7/Topo; details: MCF-7/Topo (BCRP+)
# Description: The effects of the compounds 5b, 6b, 8a, and 8e according to the present invention and of the reference compound 25f (Wang et al., J. Med. Chem. 2002, 45, 1697-1711) on cells of the following human tumor cell lines were evaluated: 518A2 melanoma, HL-60 leukemia, HT-29 colon carcinoma, KB-V1/Vbl cervical carcinoma, and MCF-7/Topo breast carcinoma.
# The HL-60 cells were obtained from the German Collection of Biological Material (DSMZ), Braunschweig, Germany; the human 518A2 melanoma cells as well as the testicular germ cell tumor cell lines H12.1 and 1411HP were cultured in the department of oncology and hematology, Medical Faculty of the Martin-Luther University, Halle, Germany; the KBV1/Vbl and the MCF-7/Topo cells were obtained from the Institute of Pharmacy of the University Regensburg, Germany; and the colon HT-29 cells from the University Hospital Erlangen, Germany. The HL-60 and the HT-29 cells were grown in RPMI-1640 medium supplemented with 10% fetal calf serum (FCS), 100 IU/mL penicillin G, 100 μg/mL streptomycin sulfate, 0.25 μg/mL amphotericin B and 250 μg/mL gentamycine (all from Gibco, Egenstein, Germany). The 518A2 and the KB-V1/Vbl cells were cultured in Dulbecco's Modified Eagle Medium (D-MEM, Gibco) containing 10% FCS, 100 IU/mL penicillin G, 100 μg/mL streptomycin sulfate, 0.25 μg/mL amphotericin B and 250 μg/mL gentamycine. The MCF-7/Topo cells were grown in E-MEM medium (Sigma) supplemented with 2.2 g/L NaHCO3, 110 mg/L sodium pyruvate and 5% FCS. The cells were maintained in a moisture-saturated atmosphere (5% CO2) at 37° C. in 75-mL culture flasks (Nunc, Wiesbaden, Germany). They were serially passaged following trypsinisation by 0.05% trypsin/0.02% EDTA (PAA laboratories, Clbe, Germany). Mycoplasma contamination was routinely monitored, and only mycoplasma-free cultures were used.
# MTT [3-(4,5-dimethylthiazol-2-yl)-2,5-diphenyltetrazolium bromide](ABCR) was used to identify viable cells which reduce it to a violet formazan (Mosmann, J. Immunol. Methods 1983, 65, 55-63). HL-60 leukemia cells (5×10^5/mL), and cells (5×10^4/mL) of 518A2 melanoma, HT-29 colon, KB-V1/Vbl cervix and MCF-7/Topo breast carcinoma were seeded out in 96-well tissue culture plates and cultured for 24 h. Incubation (5% CO2, 95% humidity, 37° C.) of the cells following treatment with the test compounds was continued for 24, 48 or 72 h. Blank and solvent controls were treated identically. […] The microplates were gently shaken in the dark for 30 min and absorbance at 570 nm and 630 nm (background) was measured with an ELISA plate reader. All experiments were carried out in quadruplicate; the percentage of viable cells was calculated as the mean±SD with controls set to 100%.
Compound,NBT Reduction [%] in 518A2 cells after 24 h (518A2 cells [1]) [%],NBT Reduction [%] in HL-60 cells after 24 h (HL-60 cells [2]) [%],Intact mitochondria [%] in 518A2 cells after 72 h (518A2 cells [3]) [%],Intact mitochondria [%] in HL-60 cells after 72 h (HL-60 cells [4]) [%],efficacy (comparison) [5],cytotoxicity / efficacy (comparison) [6]
"COc1cc(-c2ncoc2-c2ccc(N(C)C)cc2)cc(N)c1OC [8b, 4-(3′-Amino-4′,5′-dimethoxyphenyl)-5-(4″-N,N-dimethylaminophenyl)-oxazole]",1.4 ± 0.3,3.3 ± 0.2,82 ± 8,62 ± 12,,
"COc1ccc(-c2c(-c3cc(N)c(OC)c(OC)c3)ncn2C)cc1O [8c, 1-Methyl-4-(3′-amino-4′,5′-dimethoxyphenyl)-5-(3″-hydroxy-4-methoxyphenyl)-imidazole]",1.1 ± 0.0,1.8 ± 0.3,94 ± 7,76 ± 19,,
"COc1ccc(-c2c(-c3cc(N)c(OC)c(OC)c3)ncn2C)cc1F [8d, 1-Methyl-4-(3′-amino-4′,5′-dimethoxyphenyl)-5-(3″-fluoro-4-methoxyphenyl)-imidazole]",1.2 ± 0.1,1.4 ± 0.2,98 ± 15,90 ± 22,,
"COc1ccc(-c2c(-c3cc(Cl)c(OC)c(OC)c3)ncn2C)cc1F [compound 5c, 1-Methyl-4-(3′-chloro-4′,5′-dimethoxyphenyl)-5-(3″-fluoro-4-methoxyphenyl)-imidazole]",1.6 ± 0.1,4.8 ± 0.5,84 ± 6,55 ± 7,,
"COc1cc(-c2ncn(C)c2-c2ccc(N(C)C)cc2)cc(Cl)c1OC [compound 5d, 1-Methyl-4-(3′-chloro-4′,5′-dimethoxyphenyl)-5-(4″-N,N-dimethylaminophenyl)-imidazole]",2.4 ± 0.4,6.0 ± 0.9,80 ± 7,61 ± 13,,
"COc1ccc(-c2c(-c3cc(Br)c(OC)c(OC)c3)ncn2C)cc1F [compound 6c, 1-Methyl-4-(3′-bromo-4′,5′-dimethoxyphenyl)-5-(3″-fluoro-4″-methoxyphenyl)-imidazole]",1.4 ± 0.3,3.9 ± 0.1,89 ± 10,60 ± 15,,
"COc1cc(-c2ncn(C)c2-c2ccc(N(C)C)cc2)cc(Br)c1OC [compound 6d, 1-Methyl-4-(3′-bromo-4′,5′-dimethoxyphenyl)-5-(4″-N,N-dimethylaminophenyl)-imidazole]",1.6 ± 0.3,6.7 ± 0.8,82 ± 7,63 ± 13,,
"COc1cc(-c2ncn(C)c2-c2ccc3c(c2)c(Cl)cn3C)cc(N)c1OC [compound 8e, 1-methyl-4-(3-amino-4,5-dimethoxyphenyl)-5-(N-methyl-3-chloroindol-5-yl)-imidazole]",1.6 ± 0.3,6.4 ± 0.3,77 ± 8,60 ± 15,greater efficacy than 25f and 5b/6b,greater efficacy than 25f and 5b/6b
